The source of these data is ChEMBL document CHEMBL3045017, “Responses of Spodoptera littoralis larvae to Tunisian plant extracts and to neo-clerodane diterpenoids isolated from Ajuga pseudoiva leaves” (2000).

Common to all, as to type: functional
For test [1], the system named is Spodoptera littoralis. Nature of the test: Antifeedant activity against final stage larvae of Spodoptera littoralis at 100 mg/l after 8 to 24 hr.
In test [2] the test system is Spodoptera littoralis. Nature of the test: Antifeedant activity against final stage larvae of Spodoptera littoralis at 1 mg/l after 8 to 24 hr.
Test [3] relates to Spodoptera littoralis. Nature of the test: Antifeedant activity against final stage larvae of Spodoptera littoralis at 10 mg/l after 8 to 24 hr.
In test [4] the test system is Spodoptera littoralis. Description: Antifeedant activity against final stage larvae of Spodoptera littoralis at 0.1 mg/l after 8 to 24 hr.

With `CC[C@@H](C)C(=O)O[C@H]1[C@H](O)C[C@@H]2[C@@](C)([C@@H]3C[C@H]4C[C@@H](OC)O[C@H]4O3)[C@H](C)C[C@H](OC(C)=O)[C@@]2(COC(C)=O)[C@@]12CO2` [LUPULIN A], the AFI in the test with Spodoptera littoralis [1] was 100%; with Spodoptera littoralis [2] it was 74.5%; with Spodoptera littoralis [3] it was 100%; in the test with Spodoptera littoralis [4] it was 45%.
Turning to `CO[C@@H]1C[C@@H]2C[C@@H]([C@@]3(C)[C@H](C)C[C@H](OC(C)=O)[C@]4(COC(C)=O)[C@@H]3C[C@@H](O)[C@H](OC(=O)C(C)C)[C@]43CO3)O[C@@H]2O1` [HATIVENE B], the AFI in the test on Spodoptera littoralis [1] is given as 100%; in the test with Spodoptera littoralis [2] it was 69%; in the test with Spodoptera littoralis [3] it was 100%; in the test with Spodoptera littoralis [4], 41.2%.
For `CC[C@H](C)C(=O)O[C@H]1[C@H](O)C[C@@H]2[C@@](C)([C@@H]3C[C@H]4CCO[C@H]4O3)[C@H](C)C[C@H](OC(C)=O)[C@@]2(COC(C)=O)[C@@]12CO2` [14,15-DIHYDROAJUGAPITIN], the AFI with Spodoptera littoralis [1] turned out to be 100%; in the test with Spodoptera littoralis [2], 92.6%; with Spodoptera littoralis [3], 100%; in the test with Spodoptera littoralis [4] it was 65.9%.
Consider `CO[C@H]1C[C@@H]2C[C@@H]([C@@]3(C)[C@H](C)C[C@H](OC(C)=O)[C@]4(COC(C)=O)[C@@H]3C[C@@H](O)[C@H](OC(=O)C(C)C)[C@]43CO3)O[C@@H]2O1` [HATIVENE A], for which the AFI in the test with Spodoptera littoralis [1] is recorded as 100%; in the test with Spodoptera littoralis [2], 63.3%; in the test on Spodoptera littoralis [3], 100%; with Spodoptera littoralis [4], 37.3%.
Consider `CO[C@@H]1C[C@@H]2C[C@@H]([C@@]3(C)[C@H](C)C[C@H](OC(C)=O)[C@]4(COC(C)=O)[C@@H]3C[C@H](O)[C@H](OC(=O)C(C)C)[C@]43CO3)O[C@@H]2O1` [HATIVENE C], for which the AFI is reported as 100% in the test with Spodoptera littoralis [1], 63.3% with Spodoptera littoralis [2], 100% in the test on Spodoptera littoralis [3] and 42.7% in the test with Spodoptera littoralis [4].
